For 15 compounds, IC50 results are on record in patent US20250145665A1, “MACROCYCLIC PEPTIDES USEFUL AS MODULATORS OF TNF ALPHA” (Bristol-Myers Squibb Company, priority 2023, published 2025).

pIC50: −log10 of the molar value. Positions of bridges follow the written chain, without caps; N, C: chain ends. Non-standard residues stand in square brackets, D forms with d. Residues, ends and D or L forms follow the SMILES beside them. Bip(4'-COOH) = N[C@@H](Cc1ccc(-c2ccc(C(=O)O)cc2)cc1)C(=O)O; Bip(4'-NHAc) = CC(=O)Nc1ccc(-c2ccc(C[C@H](N)C(=O)O)cc2)cc1; Ala(morpholin-4-yl) = N[C@@H](CN1CCOCC1)C(=O)O; Bip = N[C@@H](Cc1ccc(-c2ccccc2)cc1)C(=O)O; Tiq1c(1S) = O=C(O)[C@H]1NCCc2ccccc21; Hyp = O=C(O)[C@@H]1C[C@@H](O)CN1; Tic = O=C(O)[C@@H]1Cc2ccccc2CN1; Cha = N[C@@H](CC1CCCCC1)C(=O)O; Chg = N[C@H](C(=O)O)C1CCCCC1; Tle = CC(C)(C)[C@H](N)C(=O)O; Aze = O=C(O)[C@@H]1CCN1; Sar = CNCC(=O)O

By pIC50 is commonly meant the negative decadic logarithm of the IC50, by convention in mol/L.

TNFα, sequence (P01375 77-233 limits assumed): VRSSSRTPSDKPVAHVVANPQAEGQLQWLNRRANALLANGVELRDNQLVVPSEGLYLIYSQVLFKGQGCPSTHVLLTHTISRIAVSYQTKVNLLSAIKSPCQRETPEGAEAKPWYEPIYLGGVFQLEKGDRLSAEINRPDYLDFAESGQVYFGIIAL

The first test has as its target TNFα (Homo sapiens, UniProt P01375). Nature of the test: TNF-Induced HEK-Blue Assay.
Settings: not given
Type of test: cell-based.
As for `CC(=O)Nc1ccc(-c2ccc(C[C@@H]3NC(=O)[C@H](Cc4ccc(-c5ccc(C(=O)O)cc5)cc4)NC(=O)[C@H](CC4CCCCC4)NC(=O)CSC[C@@H](C(=O)NCC(N)=O)NC(=O)[C@H](CC(C)C)NC(=O)[C@H](Cc4ccc(O)cc4)NC(=O)[C@H](C(C)C)NC(=O)[C@@H]4c5ccccc5CCN4C(=O)[C@H](C(C)C)NC(=O)[C@@H](CCCNC(=N)N)NC(=O)[C@H](CC(=O)O)NC(=O)[C@@H]4CCCN4C(=O)CN(C)C3=O)cc2)cc1` [Example 278] ({CH2CO}-[Cha][Bip(4'-COOH)][Bip(4'-NHAc)][Sar]PD[dR]V[Tiq1c(1S)]VYLCG-NH2; thioether N-13), the negative logarithm of the IC50 (pIC50) is 6.70 to 7.30.

The test is the same for the next values; noted with them: HEK-Blue-CD40L cells, NF-kB-driven secreted alkaline phosphatase reporter; TNFα 0.5 ng/ml; 18 h; read-out: TNF induced HEK-Blue assay IC50 value.
As to `CC[C@H](C)[C@@H]1NC(=O)[C@@H](CCCNC(=N)N)NC(=O)[C@H](CC(=O)O)NC(=O)[C@@H]2CCCN2C(=O)CN(C)C(=O)[C@H](Cc2ccc(-c3ccc(NC(C)=O)cc3)cc2)NC(=O)[C@H](Cc2ccc(-c3ccccc3)cc2)NC(=O)[C@H](C(C)(C)C)NC(=O)CSC[C@@H](C(=O)NCC(N)=O)NC(=O)[C@H](CC(C)C)NC(=O)[C@H](Cc2ccc(O)cc2)NC(=O)[C@H](C(C)C)NC(=O)[C@@H]2CCCN2C1=O` [Example 267] ({CH2CO}-[Tle][Bip][Bip(4'-NHAc)][Sar]PD[dR]IPVYLCG-NH2; thioether N-13), the pIC50 was 6.70 to 7.30. On to `CC[C@H](C)[C@@H]1NC(=O)[C@@H](CCCNC(=N)N)NC(=O)[C@H](CC(=O)O)NC(=O)[C@H](Cc2ccccc2)NC(=O)CN(C)C(=O)[C@H](Cc2ccc(-c3ccc(NC(C)=O)cc3)cc2)NC(=O)[C@H](Cc2ccc(-c3ccc(C(=O)O)cc3)cc2)NC(=O)[C@H](C(C)(C)C)NC(=O)CSC[C@@H](C(=O)NCC(N)=O)NC(=O)[C@H](CC(C)C)NC(=O)[C@H](CCCNC(=N)N)NC(=O)[C@H](C2CCCCC2)NC(=O)[C@@H]2CCCN2C1=O` [Example 268] ({CH2CO}-[Tle][Bip(4'-COOH)][Bip(4'-NHAc)][Sar]FD[dR]IP[Chg]RLCG-NH2; thioether N-13), for which the negative-log IC50 (pIC50) is > 7.30. Still for that read-out and setting: to `CC[C@H](C)[C@@H]1NC(=O)[C@@H](CCCNC(=N)N)NC(=O)[C@H](CC(=O)O)NC(=O)[C@@H]2CCCN2C(=O)CN(C)C(=O)[C@H](Cc2ccc(-c3ccc(NC(C)=O)cc3)cc2)NC(=O)[C@H](Cc2ccc(-c3ccc(C(=O)O)cc3)cc2)NC(=O)[C@H](C(C)(C)C)NC(=O)CSC[C@@H](C(=O)NCC(N)=O)NC(=O)[C@H](CC(C)C)NC(=O)[C@H](Cc2ccc(O)cc2)NC(=O)[C@H](C(C)C)NC(=O)[C@@H]2CCCN2C1=O` [Example 269] ({CH2CO}-[Tle][Bip(4'-COOH)][Bip(4'-NHAc)][Sar]PD[dR]IPVYLCG-NH2; thioether N-13) belongs 6.70 to 7.30. On the same count and under the same terms, to `CC[C@H](C)[C@@H]1NC(=O)[C@@H](CCCNC(=N)N)NC(=O)[C@H](CC(=O)O)NC(=O)[C@@H]2CCCN2C(=O)CN(C)C(=O)[C@H](Cc2ccc(-c3ccc(NC(C)=O)cc3)cc2)NC(=O)[C@H](Cc2ccc(-c3ccc(C(=O)O)cc3)cc2)NC(=O)[C@H](C(C)(C)C)NC(=O)CSC[C@@H](C(=O)NCC(N)=O)NC(=O)[C@H](CC(C)C)NC(=O)[C@H](Cc2ccc(O)cc2)NC(=O)[C@H](C2CCCCC2)NC(=O)[C@@H]2CCCN2C1=O` [Example 270] ({CH2CO}-[Tle][Bip(4'-COOH)][Bip(4'-NHAc)][Sar]PD[dR]IP[Chg]YLCG-NH2; thioether N-13) belongs 6.70 to 7.30.

With `CC(=O)Nc1ccc(-c2ccc(C[C@@H]3NC(=O)[C@H](Cc4ccc(-c5ccc(C(=O)O)cc5)cc4)NC(=O)[C@H](CC4CCCCC4)NC(=O)CSC[C@@H](C(=O)NCC(N)=O)NC(=O)[C@H](CC(C)C)NC(=O)[C@H](Cc4cnc[nH]4)NC(=O)[C@H](C(C)C)NC(=O)[C@@H]4CCN4C(=O)[C@H](C(C)C)NC(=O)[C@@H](CCCNC(=N)N)NC(=O)[C@H](CC(=O)O)NC(=O)[C@H](Cc4ccc(O)cc4)NC(=O)CN(C)C3=O)cc2)cc1` [Example 271] ({CH2CO}-[Cha][Bip(4'-COOH)][Bip(4'-NHAc)][Sar]YD[dR]V[Aze]VHLCG-NH2; thioether N-13), the pIC50 was 6.70 to 7.30.

On to `CC(=O)Nc1ccc(-c2ccc(C[C@@H]3NC(=O)[C@H](Cc4ccc(-c5ccc(C(=O)O)cc5)cc4)NC(=O)[C@H](CC4CCCCC4)NC(=O)CSC[C@@H](C(=O)NCC(N)=O)NC(=O)[C@H](CC(C)C)NC(=O)[C@H](Cc4cnc[nH]4)NC(=O)[C@H](C4CCCCC4)NC(=O)[C@@H]4CCN4C(=O)[C@H](C(C)C)NC(=O)[C@@H](CCCNC(=N)N)NC(=O)[C@H](CC(=O)O)NC(=O)[C@H](Cc4cnc[nH]4)NC(=O)CN(C)C3=O)cc2)cc1` [Example 272] ({CH2CO}-[Cha][Bip(4'-COOH)][Bip(4'-NHAc)][Sar]HD[dR]V[Aze][Chg]HLCG-NH2; thioether N-13), for which the pIC50 was 6.70 to 7.30. Same read-out and setting: to `CC(=O)Nc1ccc(-c2ccc(C[C@@H]3NC(=O)[C@H](Cc4ccc(-c5ccccc5)cc4)NC(=O)[C@H](CN4CCOCC4)NC(=O)CSC[C@@H](C(=O)NCC(N)=O)NC(=O)[C@H](CC(C)C)NC(=O)[C@H](Cc4cnc[nH]4)NC(=O)[C@H](C(C)C)NC(=O)[C@@H]4CCN4C(=O)[C@H](C(C)C)NC(=O)[C@@H](CCCNC(=N)N)NC(=O)[C@H](CC(=O)O)NC(=O)[C@H](Cc4ccc(O)cc4)NC(=O)CN(C)C3=O)cc2)cc1` [Example 273] ({CH2CO}-[Ala(morpholin-4-yl)][Bip][Bip(4'-NHAc)][Sar]YD[dR]V[Aze]VHLCG-NH2; thioether N-13) belongs > 7.30; to `CC[C@H](C)[C@@H]1NC(=O)[C@@H](CCCNC(=N)N)NC(=O)[C@H](CC(=O)O)NC(=O)[C@H](Cc2cnc[nH]2)NC(=O)CN(C)C(=O)[C@H](Cc2ccc(-c3ccc(NC(C)=O)cc3)cc2)NC(=O)[C@H](Cc2ccc(-c3ccc(C(=O)O)cc3)cc2)NC(=O)[C@H](CC2CCCCC2)NC(=O)CSC[C@@H](C(=O)NCC(N)=O)NC(=O)[C@H](CC(C)C)NC(=O)[C@H](Cc2cnc[nH]2)NC(=O)[C@H](C(C)C)NC(=O)[C@@H]2Cc3ccccc3CN2C1=O` [Example 274] ({CH2CO}-[Cha][Bip(4'-COOH)][Bip(4'-NHAc)][Sar]HD[dR]I[Tic]VHLCG-NH2; thioether N-13), > 7.30; to `CC(=O)Nc1ccc(-c2ccc(C[C@@H]3NC(=O)[C@H](Cc4ccc(-c5ccc(C(=O)O)cc5)cc4)NC(=O)[C@H](CC4CCCCC4)NC(=O)CSC[C@@H](C(=O)NCC(N)=O)NC(=O)[C@H](CC(C)C)NC(=O)[C@H](Cc4ccc(O)cc4)NC(=O)[C@H](C(C)C)NC(=O)[C@@H]4Cc5ccccc5CN4C(=O)[C@H](C(C)C)NC(=O)[C@@H](CCCNC(=N)N)NC(=O)[C@H](CC(=O)O)NC(=O)[C@@H]4CCCN4C(=O)CN(C)C3=O)cc2)cc1` [Example 275] ({CH2CO}-[Cha][Bip(4'-COOH)][Bip(4'-NHAc)][Sar]PD[dR]V[Tic]VYLCG-NH2; thioether N-13), 6.70 to 7.30. Still for that read-out and setting: the same measure for `CC[C@H](C)[C@@H]1NC(=O)[C@@H](CCCNC(=N)N)NC(=O)[C@H](CC(=O)O)NC(=O)[C@H](Cc2cnc[nH]2)NC(=O)CN(C)C(=O)[C@H](Cc2ccc(-c3ccc(NC(C)=O)cc3)cc2)NC(=O)[C@H](Cc2ccc(-c3ccc(C(=O)O)cc3)cc2)NC(=O)[C@H](CC2CCCCC2)NC(=O)CSC[C@@H](C(=O)NCC(N)=O)NC(=O)[C@H](CC(C)C)NC(=O)[C@H](Cc2cnc[nH]2)NC(=O)[C@H](C(C)C)NC(=O)[C@@H]2c3ccccc3CCN2C1=O` [Example 276] ({CH2CO}-[Cha][Bip(4'-COOH)][Bip(4'-NHAc)][Sar]HD[dR]I[Tiq1c(1S)]VHLCG-NH2; thioether N-13): > 7.30. Same read-out and setting: the same measure for `CC[C@H](C)[C@@H]1NC(=O)[C@@H](CCCNC(=N)N)NC(=O)[C@H](CC(=O)O)NC(=O)[C@H](Cc2cnc[nH]2)NC(=O)CN(C)C(=O)[C@H](Cc2ccc(-c3ccc(NC(C)=O)cc3)cc2)NC(=O)[C@H](Cc2ccc(-c3ccc(C(=O)O)cc3)cc2)NC(=O)[C@H](CC2CCCCC2)NC(=O)CSC[C@@H](C(=O)NCC(N)=O)NC(=O)[C@H](CC(C)C)NC(=O)[C@H](Cc2cnc[nH]2)NC(=O)[C@H](C(C)C)NC(=O)[C@@H]2C[C@@H](O)CN2C1=O` [Example 277] ({CH2CO}-[Cha][Bip(4'-COOH)][Bip(4'-NHAc)][Sar]HD[dR]I[Hyp]VHLCG-NH2; thioether N-13): > 7.30.

For `CC[C@H](C)[C@@H]1NC(=O)[C@@H](CCCNC(=N)N)NC(=O)[C@H](CC(=O)O)NC(=O)[C@@H]2c3ccccc3CCN2C(=O)CN(C)C(=O)[C@H](Cc2ccc(-c3ccc(NC(C)=O)cc3)cc2)NC(=O)[C@H](Cc2ccc(-c3ccc(C(=O)O)cc3)cc2)NC(=O)[C@H](CC2CCCCC2)NC(=O)CSC[C@@H](C(=O)NCC(N)=O)NC(=O)[C@H](CC(C)C)NC(=O)[C@H](Cc2ccc(O)cc2)NC(=O)[C@H](C(C)C)NC(=O)[C@@H]2CCCN2C1=O` [Example 279] ({CH2CO}-[Cha][Bip(4'-COOH)][Bip(4'-NHAc)][Sar][Tiq1c(1S)]D[dR]IPVYLCG-NH2; thioether N-13), the negative logarithm of the IC50 (pIC50) was 6.70 to 7.30.

With `CC(=O)Nc1ccc(-c2ccc(C[C@@H]3NC(=O)[C@H](Cc4ccc(-c5ccc(C(=O)O)cc5)cc4)NC(=O)[C@H](CC4CCCCC4)NC(=O)CSC[C@@H](C(=O)NCC(N)=O)NC(=O)[C@H](CC(C)C)NC(=O)[C@H](Cc4cnc[nH]4)NC(=O)[C@H](C(C)C)NC(=O)[C@@H]4CCCN4C(=O)[C@H](C4CCCCC4)NC(=O)[C@@H](CCCNC(=N)N)NC(=O)[C@H](CC(=O)O)NC(=O)[C@H](Cc4cnc[nH]4)NC(=O)CN(C)C3=O)cc2)cc1` [Example 280] ({CH2CO}-[Cha][Bip(4'-COOH)][Bip(4'-NHAc)][Sar]HD[dR][Chg]PVHLCG-NH2; thioether N-13), the pIC50 was 6.70 to 7.30. The same measure, in the same setting: to `CC[C@H](C)[C@@H]1NC(=O)[C@@H](CCCNC(=N)N)NC(=O)[C@H](CC(=O)O)NC(=O)[C@H](Cc2cnc[nH]2)NC(=O)CN(C)C(=O)[C@H](Cc2ccc(-c3ccc(NC(C)=O)cc3)cc2)NC(=O)[C@H](Cc2ccc(-c3ccc(C(=O)O)cc3)cc2)NC(=O)[C@H](CC2CCCCC2)NC(=O)CSC[C@@H](C(=O)NCC(N)=O)NC(=O)[C@H](CC(C)C)NC(=O)[C@H](Cc2ccc(OC)cc2)NC(=O)[C@H](C(C)C)NC(=O)[C@@H]2CCCN2C1=O` [Example 281] ({CH2CO}-[Cha][Bip(4'-COOH)][Bip(4'-NHAc)][Sar]HD[dR]IPVY(Me)LCG-NH2; thioether N-13) belongs 6.70 to 7.30.
